# According to the supplement of paper PMC10307832:
# Tests used:
# Test in all cases: relative viability (nuclei count vs DMSO), 5 days (fraction); higher = more cells survive
# [1] = compound: CC1=CC=C(C=C1)C(=O)CN2C3=C(CCCC3)SC2=N [Pifithrin_alpha] + COc1cccc2cc(-c3nc([C@H]4CC[C@H](C(=O)O)CC4)n4ncnc(N)c34)[nH]c12 [OSI-027] (partner 0.5 µM)
# Summary of the method: (§1)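 A single step with final 0.05% Triton X-100, 1% formaldehyde and 1 ug/ml Hoechst fixed the cells and stained nuclei 5 days after treatment. Lung cancer cell lines in 1536-well plates had been treated by pin tool the day after seeding with one drug alone or a fixed anchor-drug dose plus five library-drug doses (not always all listed) in √10 steps, and nuclei were counted on 4× images. Relative viability is the ratio of nuclei in treated wells to nuclei in vehicle wells, taken as the median of duplicate plates.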
# [2] = compound: CC1=CC=C(C=C1)C(=O)CN2C3=C(CCCC3)SC2=N [Pifithrin_alpha] + Cc1nc(Nc2ncc(C(=O)Nc3c(C)cccc3Cl)s2)cc(N2CCN(CCO)CC2)n1 [Dasatinib] (partner 0.075 µM)
# Summary of the method: as §1
# Axitinib + Trametinib = compound: CNC(=O)c1ccccc1Sc1ccc2c(/C=C/c3ccccn3)n[nH]c2c1 [Axitinib] + CC(=O)Nc1cccc(-n2c(=O)n(C3CC3)c(=O)c3c(Nc4ccc(I)cc4F)n(C)c(=O)c(C)c32)c1 [Trametinib] (partner 0.02 µM)
# Summary of the method: as §1
# Axitinib + Phenformin = compound: CNC(=O)c1ccccc1Sc1ccc2c(/C=C/c3ccccn3)n[nH]c2c1 [Axitinib] + N=C(N)NC(=N)NCCc1ccccc1 [Phenformin] (partner 250 µM)
# Summary of the method: as §1
Cell Line,relative viability ([1]; first compound 1 µM),relative viability ([1]; first compound 3.162 µM),relative viability ([1]; first compound 10 µM),relative viability ([1]; first compound 31.62 µM),relative viability ([1]; first compound 100 µM),relative viability ([2]; first compound 1 µM),relative viability ([2]; first compound 3.162 µM),relative viability ([2]; first compound 10 µM),relative viability ([2]; first compound 31.62 µM),relative viability ([2]; first compound 100 µM),relative viability (Axitinib + Trametinib; first compound 0.005 µM),relative viability (Axitinib + Trametinib; first compound 0.05 µM),relative viability (Axitinib + Trametinib; first compound 0.1581 µM),relative viability (Axitinib + Trametinib; first compound 0.5 µM),relative viability (Axitinib + Phenformin; first compound 0.005 µM),relative viability (Axitinib + Phenformin; first compound 0.01581 µM),relative viability (Axitinib + Phenformin; first compound 0.05 µM),relative viability (Axitinib + Phenformin; first compound 0.1581 µM),relative viability (Axitinib + Phenformin; first compound 0.5 µM),relative viability (Axitinib + Trametinib; first compound 0.01581 µM)
PC-3 [JPC-3],0.676,0.747,0.574,0.545,0.618,0.971,0.928,0.671,0.933,0.917,0.756,0.626,0.762,0.741,0.491,0.445,0.493,0.507,0.539,–
HCC-366,0.787,0.605,0.538,–,0.48,0.501,0.506,0.426,–,0.537,0.415,0.391,0.359,0.333,0.689,0.615,0.631,0.553,0.653,0.417
NCI-H2405,0.494,0.639,0.583,0.58,0.579,0.156,0.197,0.205,0.188,0.196,0.635,0.513,0.594,0.576,0.386,0.435,0.468,0.399,0.357,0.56
LU99A,0.266,0.27,0.273,0.23,0.281,0.385,0.651,0.609,0.369,0.583,0.547,0.534,0.541,0.511,0.784,0.823,0.981,0.88,0.91,0.463
LCLC-97TM1,0.706,0.689,0.631,0.252,0.6,1.08,0.846,0.984,0.428,0.954,0.18,0.184,0.202,0.187,0.458,0.381,0.43,0.47,0.314,0.212
A-427,0.398,0.416,0.445,0.445,0.601,0.824,0.635,0.599,0.513,0.702,0.89,0.758,0.761,0.879,0.356,0.29,0.416,0.323,0.289,0.711
EMC-BAC-2,0.329,0.386,0.358,–,0.353,0.311,0.319,0.298,–,0.311,0.952,0.898,0.926,0.88,0.552,0.535,0.483,0.547,0.57,0.905
NCI-H2228,0.589,0.574,0.526,0.392,0.283,0.516,0.471,0.421,0.425,0.363,0.683,0.561,0.478,0.509,0.324,0.326,0.412,0.36,0.269,0.515
NCI-H838,0.381,0.35,0.349,0.263,0.258,0.259,0.28,0.245,0.234,0.229,0.565,0.584,0.52,0.572,0.697,0.509,0.763,0.564,0.654,0.486
COR-L 105,0.6,0.667,0.591,0.64,0.495,0.315,0.292,0.323,0.243,0.323,0.478,0.446,0.452,0.466,0.605,0.4,0.527,0.388,0.547,0.414
NCI-H358,0.761,0.797,0.658,0.629,0.528,0.165,0.169,0.187,0.181,0.16,0.137,0.144,0.125,0.14,0.344,0.32,0.332,0.309,0.388,0.13
SK-MES-1,0.575,0.59,0.527,0.396,0.511,0.344,0.237,0.264,0.228,0.268,0.553,0.569,0.485,0.581,0.65,0.653,0.654,0.631,0.738,0.562
LCLC-103H,0.521,0.504,0.437,0.411,0.531,0.518,0.474,0.498,0.43,0.425,0.737,0.685,0.705,0.693,0.32,0.341,0.345,0.356,0.312,0.651
HARA,–,0.482,0.58,–,0.441,–,0.256,0.257,–,0.268,0.727,0.768,0.618,0.949,0.421,0.412,0.493,0.392,0.488,0.707
ABC-1,0.358,0.526,0.35,0.299,0.326,0.413,0.439,0.435,0.398,0.453,–,–,–,–,0.268,0.239,0.222,0.21,0.241,–
NCI-H727,0.394,0.577,0.579,–,0.404,0.357,0.421,0.394,–,0.346,0.375,0.402,0.377,0.414,0.7,0.519,0.589,0.536,0.728,0.369
NCI-H2009,0.601,0.663,0.62,0.431,0.456,0.316,0.293,0.301,0.186,0.244,0.279,0.304,0.245,0.254,0.492,0.497,0.506,0.513,0.577,0.252
NCI-H1944,0.346,0.362,0.351,0.252,0.293,0.217,0.214,0.217,0.173,0.196,0.562,0.451,0.39,0.434,0.204,0.199,0.206,0.191,0.189,0.388

Cell Line,relative viability ([1]; first compound 1 µM),relative viability ([1]; first compound 3.162 µM),relative viability ([1]; first compound 10 µM),relative viability ([1]; first compound 31.62 µM),relative viability ([1]; first compound 100 µM),relative viability ([2]; first compound 1 µM),relative viability ([2]; first compound 3.162 µM),relative viability ([2]; first compound 10 µM),relative viability ([2]; first compound 31.62 µM),relative viability ([2]; first compound 100 µM),relative viability (Axitinib + Trametinib; first compound 0.005 µM),relative viability (Axitinib + Trametinib; first compound 0.05 µM),relative viability (Axitinib + Trametinib; first compound 0.1581 µM),relative viability (Axitinib + Trametinib; first compound 0.5 µM),relative viability (Axitinib + Phenformin; first compound 0.005 µM),relative viability (Axitinib + Phenformin; first compound 0.01581 µM),relative viability (Axitinib + Phenformin; first compound 0.05 µM),relative viability (Axitinib + Phenformin; first compound 0.1581 µM),relative viability (Axitinib + Phenformin; first compound 0.5 µM),relative viability (Axitinib + Trametinib; first compound 0.01581 µM)
SW 1573,0.662,0.601,0.572,0.422,0.76,0.616,0.513,0.602,0.36,0.577,0.525,0.665,0.521,0.611,0.465,0.37,0.398,0.295,0.408,0.558
NCI-H1975,0.731,0.583,0.319,0.309,0.276,0.257,0.242,0.2,0.214,0.2,0.44,0.325,0.348,0.328,0.436,0.43,0.408,0.391,0.446,0.361
NCI-H661,0.691,0.707,0.678,0.514,0.579,0.967,0.842,0.801,0.62,0.76,0.594,0.578,0.556,0.583,0.281,0.29,0.271,0.267,0.285,0.5
UMC-11,0.537,0.518,0.56,0.485,0.456,0.465,0.656,0.514,0.436,0.638,0.709,0.572,0.691,0.616,0.343,0.353,0.322,0.326,0.34,0.668
NCI-H520,0.297,0.244,0.259,0.288,0.25,0.299,0.204,0.18,0.243,0.263,0.704,0.733,0.541,0.686,0.489,0.404,0.655,0.362,0.386,0.542
COR-L23,0.843,0.822,0.616,–,0.613,0.567,0.458,0.386,–,0.38,0.693,0.785,0.527,0.656,0.458,0.417,0.428,0.419,0.485,0.623
NCI-H2023,0.305,0.3,0.204,–,0.213,0.432,0.324,0.348,–,0.275,0.634,0.489,0.439,0.57,0.426,0.436,0.467,0.372,0.473,0.483
NCI-H1650,–,0.532,0.43,0.494,0.411,–,0.242,0.246,0.25,0.212,0.613,0.682,0.648,0.749,0.488,0.309,0.553,0.352,0.536,0.469
RERF-LC-KJ,0.586,0.477,0.421,0.393,0.317,0.721,0.633,0.737,0.411,0.521,0.952,0.875,0.833,0.966,0.462,0.445,0.396,0.457,0.458,0.91
NCI-H1734,0.58,0.633,0.585,0.482,0.491,0.421,0.494,0.474,0.461,0.424,0.676,0.608,0.686,0.669,0.423,0.401,0.371,0.404,0.366,0.549
NCI-H1648,0.226,0.277,0.234,0.235,0.252,–,–,–,–,–,0.622,0.335,0.525,0.509,–,–,–,–,–,0.553
NCI-H2087,0.417,0.499,0.483,–,0.605,0.982,0.869,0.83,–,0.862,0.206,0.196,0.21,0.242,0.48,0.418,0.51,0.444,0.563,0.182
EKVX,0.668,–,0.569,0.734,0.604,–,0.461,0.352,0.404,0.384,0.286,0.347,0.323,0.406,0.243,0.222,0.214,0.233,0.216,0.29
NCI-H1563,0.776,0.81,0.76,0.704,0.716,0.406,0.478,0.369,0.442,0.44,–,–,–,–,0.778,0.654,0.625,0.616,0.667,–
A549,–,–,–,–,–,–,–,–,–,–,–,–,–,–,0.204,0.198,0.217,0.149,0.216,–
NCI-H1623,0.401,0.5,0.38,0.331,0.324,0.463,0.603,0.523,0.56,0.448,–,–,–,–,0.669,0.585,0.315,0.613,0.6,–
HCC-44,0.39,0.391,0.481,0.324,0.268,–,–,–,–,–,1.05,1.05,1.06,1.03,0.165,0.27,0.211,0.198,0.176,1.1
